This is an account of results in article PMC6270194 (Molecules, 2013).

Marks after values point to notes of the source that are not given here.

The IC50 is the concentration at which inhibition is half-maximal. Usually inhibition stands for the share of the control response that was lost under treatment.

For series [1], the system named is angiotensin converting enzyme (ACE). The series can be described thus: Angiotensin converting enzyme (ACE) inhibition assay. It counts as biochemical. To be noted: 10 μM compounds dissolved in DMSO. As to the method:
ACE assay is based on ACE inhibitory activity of test samples. The enzyme activity was measured by production of hippuric acid from the substrate hippuryl-L-histidyl-L-leucine (HHL). ACE cleaves the substrate to expose a free N-terminus, which was fluorogenically labeled with o-phthaldialdehyde (OPA). The florescence signal was measured by using excitation of 350 nm and emission of 500 nm. ACE inhibition activity of samples was measured using the following equation: % inhibition = 100 − (Acontrol − Asample)/Acontrol × 100 (1) where A is the absorbance Equation (1).

Series [2] concerns human endothelial lung cells. The series can be described thus: Cytotoxicity analysis by LDH release assay. The series is classed as cell-based. To be noted: 10 µM, 24 hours. As for the experimental part:
In the current study authors conducted a toxicology study to confirm safety of compounds and their dosage for potential animal or clinical studies. The study was conducted at 10 µM concentration using human endothelial lung cells. […] Literature reports on cytotoxic behavior of potent natural antioxidants are rare. Research in the field of free radicals mainly deals with screening of novel antioxidants and their mechanism of action.
Human lung cell line (ATCC® PCS-100-022™) was purchased from American Type Culture Collection (Cederlane, Burlington, ON, Canada). Cell lines were maintained and grown in DMEM complete growth media, supplemented with 10% fetal bovine serum (FBS), 100 units/mL penicillin and 100 µg/mL streptomycin (Cederlane) at 37 °C, in a humidified 5% CO2 incubator. Cell growth medium was changed every 48 hours and when cells reached 80% confluence, they were detached from 75 cm^2 tissue culture flask using 0.25% trypsin-EDTA treatment. The detached cells were collected in sterile tube in FBS free media. Collected cells were then counted using the Millipore Scepter 2.0 handheld automated cell counter. Further assay specific analysis was performed as described in section 2.10.
Cytotoxicity assay was performed using Promega Cytotox 96® non-radioactive colorimetric assay (Promega Corporation). The assay measures the lactate dehydrogenase (LDH) release upon cell lysis. The released LDH from cells was measured in an enzymatic assay based on conversion of tetrazolium salt to a red formazan product. Briefly, 5,000 human endothelial lung cells in 100 µL of serum-free culture medium were seeded in 96 well sterile plates. Cells were allowed to adhere to the plates for 24 h at 37 °C in a humidified, 5% CO2 incubator. After 24 h, the serum-free media was replaced by test compounds in 100 µL of serum-free culture medium. […] The test compounds at 10 µM concentration were allowed to interact with cells for 24 hours after which absorbance were recorded at 490 nm using BMG FLUOstar OPTIMA spectrophotometer (BMG Labtech, Durham, NC). […]
On the technique in general: LDH in the medium is a marker of cell lysis.

Series [3] in a line: DPPH· free radical scavenging assay. The note with it: for IC50: DPPH· scavenging, 0.2 mM DPPH· in DMSO, absorbance 515 nm. As to the method:
DPPH^· assay is widely used to observe radical scavenging activity of various compounds and extracts. DPPH^· is stable N radical which is reduced to hydrazine during its reaction with hydrogen donors.
Initially, 0.2 mM DPPH^· solution was prepared using DMSO as the solvent. […] During reduction of DPPH^· solution by antiradical compound, absorption of DPPH^· was measured at 515 nm. The spectrophotometric data was acquired using BMG FLUOstar OPTIMA spectrophotometer (BMG Labtech, Durham, NC, USA) and the IC50 values were calculated.
In general terms: Loss of DPPH colour is used to gauge radical scavenging.

Series [4] can be described thus: Oxygen radical absorbance capacity (ORAC) assay. To be noted: 1 μM compounds dissolved in DMSO; Trolox equivalence; mean ± SD. As for the experimental part:
ORAC assay is based on the free radical damage to a fluorescence probe measured by fluorescence intensity over the time. The fluorescein sodium salt was used as fluorescence probe and change in its intensity was estimated as the index of the degree of free radical damage. Assay was performed using method described elsewhere. Briefly, the standards and samples were prepared using 75 mM phosphate buffer (pH 7). As the peroxy radicals are generated from decomposition of 2,2'-azobis(2-amidino-propane) dihydrochloride (AAPH), the signal was quenched from fluorescein. However, in the presence of antioxidant samples the fluorescence signal can be stabilize which depends directly upon the antioxidant’s capacity to neutralize the free radical. Quadratic relation emerging from florescent area under the decaying curve was used to calculate antioxidant capacity as mmol Trolox equivalence per L.

The next series relates to Tyrosinase. As to the kind of experiment: Tyrosinase inhibition assay (L-DOPA substrate). The series is classed as biochemical. To be noted: 10 μM compounds dissolved in DMSO. As for the experimental part:
Tyrosinase inhibition was calculated based on previously described methods using L-DOPA as the substrate. Tyrosinase inhibition depended upon the amount of dopachrome produced in the reaction mixture. Absorption was measured at 490 nm to calculate the amount of dopachrome produced. The assay was performed in 96-well clear polystyrene plates using FLUOstar OPTIMA plate reader. The tyrosinase inhibitory effect of sample was measured using the following the Equation (1).

Another series concerns the target T1, HIV-1 protease (Human immunodeficiency virus type 1 group M subtype B, UniProt P04585).
T1 construct: HIV-1 protease enzyme (Sigma Aldrich); purchased Sigma Aldrich
As to the kind of experiment: HIV-1 protease inhibition assay (fluorescent substrate). It counts as biochemical. The note with it: 10 μM compounds dissolved in DMSO; read-out: % Enzyme Inhibition HIV-I protease. As to the method: HIV-1 protease inhibition was performed by using a previously described method. HIV protease fluorescent substrate and HIV-1 protease enzyme (Sigma Aldrich) were used to determine HIV inhibition capacity of sample. Three primary controls i.e., blank, sample and positive control were used. Reaction mixture of 200 µL comprised of five enzyme units (5U) of HIV-1 protease along with 0.5 pmol of enzyme substrate. After addition of both enzymes and substrates, test compounds were added in different concentrations. Reaction mixture was incubated at 37 °C which leads to generation of fluorescence signal by cleaving Tyr-Pro peptide bond of the substrate. Finally reaction mixture was heated for 5 minutes at 90 °C to stop the reaction. The mixture was centrifuged at 12,000 rpm for 3 min. and supernatant was used to measure the fluorescence signal. The enzyme inhibition was calculated using the Equation (1).

Series [5] is described as follows: Ferric reducing ability of plasma (FRAP) assay. The note with it: 10 μM compounds dissolved in DMSO; Trolox equivalence; mean ± SD. The source says: The FRAP assay uses antioxidants in a redox-linked colorimetric assay to reduce ferric tripyridyl triazine to ferrous form at low pH [20].
FRAP assay is based on ferric to ferrous ion reduction to test the electron donating capacity of antioxidants. The assay was modified by using the 96-well microplate reader with an injection port system. Briefly, the FRAP working reagent was made using acetate buffer, 2,4,6-Tris (2-pyridyl)-s-triazine solution and ferric chloride in the ratio 10:1:1. […] After 6 min reaction time, absorbance was measured at 593 nm. Trolox standards at different concentrations were used to calculate the antioxidant capacity as mmol Trolox equivalence per L.

As to `Cc1ccc(/C=C/C(O)=C2\CCC/C(=C\c3ccc(C)cc3)C2=O)cc1` [Compound 2g], the “% Enzyme Inhibition ACE” value in series [1] is listed as 15.04 ^g %. In series [2], the “cytotoxicity ranking (LDH release), in words” value (“cytotoxicity ranking” for short) is “lowest cytotoxicity effects”. The same compound showed an IC50 in series [3] of 1360 µM. Besides, in series [4], the ORAC antioxidant capacity is 0.84 ± 0.01 ^d mmole TE/L. In addition, in the series with Tyrosinase, the “% Enzyme Inhibition Tyrosinase” value was 59.44 ^fg %. The inhibition at 10 µM at HIV-1 protease stood at 20.1%. For the same compound, the FRAP antioxidant capacity in series [5] is 1.12 ± 0.02 ^g mmole TE/L.
Turning to `COc1ccc(/C=C/C(O)=C2\CC/C(=C\c3ccc(OC)cc3)C2=O)cc1` [Compound 3c], the “% Enzyme Inhibition ACE” value in series [1] was 67.42 ^cd %. Also, the “cytotoxicity ranking” value in series [2] is on record as “highest cytotoxic behavior”. Besides, the “antiradical capacity lower than other series 3 analogues (fold)” value in series [3] (DPPH assay, relative to other curcumin analogues in series 3) is reported as “approximately 10 fold”. Also, in series [3], the IC50 amounted to 340 µM. Besides, in series [4], the ORAC antioxidant capacity is listed as 1.17 ± 0.1 ^b mmole TE/L. Further, the “% Enzyme Inhibition Tyrosinase” value with Tyrosinase is 58.54 ^g %. Moreover, the inhibition at 10 µM on HIV-1 protease amounted to 35.9%. Moreover, the FRAP antioxidant capacity in series [5] is on record as 1.09 ± 0.1 ^gh mmole TE/L.
In the case of `O=C1/C(=C(O)/C=C/c2ccc(Cl)cc2)CC/C1=C\c1ccc(Cl)cc1` [Compound 3f], the “% Enzyme Inhibition ACE” value in series [1] was 75.12 ^bc %. For the same compound, in series [2], the “cytotoxicity ranking” value is “lowest cytotoxicity effects”. In addition, the “radical scavenging capacity higher than curcumin (fold)” value in series [3] (DPPH assay, relative to curcumin) is “over 10 fold”. The IC50 in series [3] worked out at 90 µM. In addition, the ORAC antioxidant capacity in series [4] is reported as 1.30 ± 0.02 ^b mmole TE/L. Further, the “% Enzyme Inhibition Tyrosinase” value with Tyrosinase was 61.31 ^e %. Moreover, the inhibition at 10 µM on HIV-1 protease amounted to 23.3%. In addition, in series [5], the FRAP antioxidant capacity is 1.09 ± 0.1 ^gh mmole TE/L.
